Source: patent publication US12144820B2, “Dry powder formulations for inhalation” (VECTURA INC., priority 2016, dated 2024)
Converted amounts (≈) assume the structure as drawn. Like-named read-outs stand apart in the source and are kept apart here. One block for each compound: values may come before it.

Experiments:
Type in all cases: physicochemical
[1] = Chemical stability of aspirin in ASA/Leucine formulations by RP-HPLC after storage; conditions: reference standard, no storage condition
Experimental: Chemical stability of aspirin in the formulations were tested by RP-HPLC before and after the formulations were exposed to various storage conditions.

[2] = Potency and purity by RP-HPLC of aspirin/leucine formulations; conditions: before storage
Experimental: The properties of the ASA formulation were evaluated, including geometric particle size distribution (e.g., using laser diffraction such as the Malvern Dry Method); particle morphology (e.g., using scanning electron microscopy (SEM)); ID/Assay and purity (e.g., by HPLC); X-ray powder diffraction (XRPD); and aerosol properties by NGI.

[3] = ASA and L-leucine mixing solubility; conditions: for precipitation after mixing: 5 wt. % total solids, on the order of minutes
Experimental: The objective is to apply absolute solubility of ASA and L-Leu to a mixing study to determine if a spray drying approach is feasible. ASA and L-leucine was independently dissolved in preferred solvent: ASA in EtOH, and L-leucine in a sulfuric acid solution (pH 4.0) (which may increase L-leucine solubility in water). Proposed formulations were evaluated at a final total solids of 7 wt. % and 5 wt. %. In one embodiment, solvent ratio was 25/75 EtOH/Water. Precipitation of components was analyzed visually.

[4] = ASA and L-leucine absolute solubility in EtOH/water blends
Experimental: To define the absolute solubility of ASA and L-leucine in a variety of solvent blends, solvent blends were evaluated for solubility of ASA and L-leucine by visual confirmation. As used in this example, unless specified otherwise, leucine is L-leucine.

[5] = Anti-solvent evaluation of 5% w/w acetylsalicylic acid suspensions; conditions: 5% w/w suspension, room temperature
Experimental: After considering a number of factors in the end it was determined that only n-heptane and toluene fulfilled all the requirements, and therefore these were selected for further evaluation. Suspensions of acetylsalicylic acid at 5% w/w were prepared with the various anti-solvents, by charging the required amount of anti-solvent, charging the required amount of acetylsalicylic acid, and then stirring until a homogeneous suspension was obtained. The suspensions were qualitatively evaluated at room temperature and then filtered using a 0.45 μm membrane, which was then placed in an oven and dried at 60° C. until the solvent had completely evaporated. A quantitative analysis was performed on the residue that remained in the membrane by weighing the membrane before and after the test.

[6] = ASA in ethanol spray solution stability evaluation; conditions: for % ASA Purity / % SA: 9 wt % ASA in ethanol
Experimental: ASA degrades to salicylic acid (SA) as a function of time and temperature due to dissolution. Initial and cold 1 day solutions contained less than 0.5% SA.
9 wt % ASA was added to ethanol with constant stirring to stainless steel vessels. Samples were either stirred at ambient room temperature (approx. 22° C.) or 4° C. and sampled at 1, 3 and 6 days (Table 34).

ASA Purity (%) [1]: 99.76%
SA Impurity (%) [1]: 0.24%
Compound: CC(=O)Oc1ccccc1C(=O)O [ASA Reference Standard]

ASA Purity [2]: 99.76 ± 0.11%
SA Purity [2]: 0.24 ± 0.11%
Compound: CC(=O)Oc1ccccc1C(=O)O [ASA Standard]

precipitation after mixing [3]: no evidence of precipitation
time to precipitation out of solution ([3]; 7 wt. % solids, 85/15 ASA/L-leucine formulation, after mixing): approximately 60 seconds
solubility ([4]; Neutral, EtOH/Water 0/100 (v/v), read-out: L-Leucine solubility): 10000 µg/mL (≈ 76.2 mM)
L-Leucine solubility ([4]; Neutral, EtOH/Water 25/75 (v/v)): 0.04 wt. %
L-Leucine solubility ([4]; Neutral, EtOH/Water 50/50 (v/v)): 0.03 wt. %
L-Leucine solubility ([4]; Neutral, EtOH/Water 75/25 (v/v)): 0.02 wt. %
L-Leucine solubility ([4]; Neutral, EtOH/Water 90/10 (v/v)): Insouble
solubility ([4]; aqueous buffer, pH 3, EtOH/Water 0/100 (v/v), read-out: L-Leucine solubility): 17000 µg/mL (≈ 130 mM)
solubility ([4]; aqueous with cosolvent or surfactant or cyclodextrin, Neutral, EtOH/Water 10/90 (v/v), read-out: L-Leucine solubility): 9000 µg/mL (≈ 68.6 mM)
solubility ([4]; aqueous with cosolvent or surfactant or cyclodextrin, Neutral, EtOH/Water 25/75 (v/v), read-out: L-Leucine solubility): 400 µg/mL (≈ 3.05 mM)
solubility ([4]; aqueous with cosolvent or surfactant or cyclodextrin, Neutral, EtOH/Water 50/50 (v/v), read-out: L-Leucine solubility): 300 µg/mL (≈ 2.29 mM)
solubility ([4]; aqueous with cosolvent or surfactant or cyclodextrin, pH 3, EtOH/Water 10/90 (v/v), read-out: L-Leucine solubility): 11000 µg/mL (≈ 83.9 mM)
solubility ([4]; aqueous with cosolvent or surfactant or cyclodextrin, pH 3, EtOH/Water 50/50 (v/v), read-out: L-Leucine solubility): 1000 µg/mL (≈ 7.62 mM)
solubility ([4]; organic solvent or mixture, Neutral, EtOH/Water 75/25 (v/v), read-out: L-Leucine solubility): 200 µg/mL (≈ 1.52 mM)
L-Leucine solubility ([4]; pH 3, EtOH/Water 0/100 (v/v)): 1.7 wt. %
L-Leucine solubility ([4]; pH 3, EtOH/Water 10/90 (v/v)): 1.0 wt. %
L-Leucine solubility ([4]; pH 3, EtOH/Water 50/50 (v/v)): 0.1 wt. %
Compound: CC(C)C[C@H](N)C(=O)O [L-Leucine, L-leucine]

solubility behaviour in anti-solvent ([5]; n-heptane): phobic behavior
solubility behaviour in anti-solvent ([5]; toluene): partially soluble
precipitation after mixing [3]: no evidence of precipitation
% ASA Purity ([6]; Ambient Conditions, 1 Day): 98.0%
% SA ([6]; Ambient Conditions, 1 Day): 1.7%
% ASA Purity ([6]; Ambient Conditions, 3 Day): 90.5%
% SA ([6]; Ambient Conditions, 3 Day): 7.5%
% ASA Purity ([6]; Ambient Conditions, 6 Day): 90.5%
% SA ([6]; Ambient Conditions, 6 Day): 7.2%
% ASA Purity ([6]; Ambient Conditions, Initial): 99.9%
% SA ([6]; Ambient Conditions, Initial): 0.1%
% ASA Purity ([6]; Controlled 4° C., 1 Day): 99.1%
% SA ([6]; Controlled 4° C., 1 Day): 0.4%
% ASA Purity ([6]; Controlled 4° C., 3 Day): 97.5%
% SA ([6]; Controlled 4° C., 3 Day): 2.0%
% ASA Purity ([6]; Controlled 4° C., 6 Day): 96.7%
% SA ([6]; Controlled 4° C., 6 Day): 2.3%
% ASA Purity ([6]; Controlled 4° C., Initial): 99.9%
% SA ([6]; Controlled 4° C., Initial): 0%
SA content of spray solution ([6]; Initial and cold 1 day solutions): less than 0.5%
ASA solubility ([4]; EtOH/Water 50/50 (v/v)): 7.5 wt. %
solubility ([4]; EtOH/Water 50/50 (v/v), aqueous with cosolvent or surfactant or cyclodextrin, read-out: ASA solubility): 72500 µg/mL (≈ 402 mM)
ASA solubility ([4]; EtOH/Water 75/25 (v/v)): 17.4 wt. %
solubility ([4]; EtOH/Water 75/25 (v/v), organic solvent or mixture, read-out: ASA solubility): 118000 µg/mL (≈ 653 mM)
ASA solubility ([4]; EtOH/Water 90/10 (v/v)): 21.4 wt. %
solubility ([4]; EtOH/Water 90/10 (v/v), organic solvent or mixture, read-out: ASA solubility): 220000 µg/mL (≈ 1220 mM)
ASA solubility ([4]; all solvent blends except 25/75 EtOH/water): up to 5 wt. % total solids
Compound: CC(=O)Oc1ccccc1C(=O)O [acetylsalicylic acid]
